In general, melting point refers to the temperature, or range, at which the solid turns liquid.

Molecules are shown by their SMILES. Structures can show the parent of a compound that is named as a salt. Where only a bound is given, the exact number is not on record here.

For data set [1], the system named is human form of induced nitric oxide synthase. The experiment in a line: Screen 3: nitrite accumulation (Griess) in cytokine-induced DLD-1 cells. In kind it is cell-based. Conditions: DLD-1 cells induced with gamma-IFN, TNF-alpha, IL-6, IL-1-beta, 5 hours incubation with compound, read-out: IC50 (inhibition of nitrite accumulation). As to the method:
The human colorectal carcinoma cell line, DLD-1 (obtained from the European Collection of Animal Cell Culture—cell line number 90102540) was routinely grown in RPMI 1640 supplemented with 10%(v/v) foetal bovine serum, and 2 mM L-glutanmine, at 37° C. in 5% CO2.
Nitric oxide synthase was induced in cells by addition of medium containing human recombinant gamma-IFN (1000 units/ml), TNF-alpha (200 U/ml), IL-6 (200 U/ml) and IL-1-beta (250 U/ml). After incubation for 18 hours at 37° C., the medium was removed and the cells washed with warm phosphate buffered saline. Cells were incubated for a further 5 hours at 37° C./5% CO2 in RPMI 1640 containing 100 μM L-arginine and 100 μM verapamil-HCl in the presence and absence of test compounds.
Nitrite accumulation was determined by mixing an equal volume of culture media with Griess reagent (10 mg/ml sulphanilamide, 1 mg N-(1-naphthyl)ethylenediamine in 1 ml 2.5% (v/v) phosphoric acid). Inhibition in the presence of compounds was calculated relative to the nitrite levels produced by untreated cells. IC50 values were estimated from a semi-log plot of % inhibition versus concentration of compound.
In general terms: Nitrite, measured by Griess reagent, commonly stands in for NO production.

A further data set concerns the target T1, Nitric oxide synthase (Mus musculus, UniProt P29477).
T1 construct: endogenous in cells; host or cells: J774A-1 murine macrophage cell line, induced with LPS and IFNg; crude cell lysate
Kind of data set: Screen 1: nitric oxide synthase inhibition, 3H-L-arginine to 3H-L-citrulline conversion, lysate of induced J774A-1 cells. The format is biochemical, murine. Conditions: enzyme from LPS/IFNg-induced J774A-1 macrophage lysate; 1 hour at room temperature; read-out: IC50 (concentration of drug substance which gives 50% enzyme inhibition in the assay). As to the method:
The activity of compounds of formula (I), or a pharmaceutically acceptable salt thereof, may be screened for nitric oxide synthase inhibiting activity by a procedure based on that of Förstermann et al., Eur. J. Pharm., 1992, 225, 161–165. Nitric oxide synthase converts ^3H-L-arginine into ^3H-L-citrulline which can be separated by cation exchange chromatography and quantified by liquid scintillation counting.
Enzyme is prepared, after induction, from the cultured murine macrophage cell line J774A-1 (obtained from the laboratories of the Imperial Cancer Research Fund). J774A-1 cells are cultured in Dulbeccos Modified Eagles Medium (DMEM) supplemented with 10% foetal bovine serum, 4 mM L-glutamine and antibiotics (100 units/nl penicillin G, […] streptomycin & […] ainphotericin B). Cells are routinely grown in […] flasks containing 35 ml medium kept at 37° C. and in a humidified atmosphere containing 5% CO2. […]
Labelled L-citrulline is separated from labelled L-arginine using Dowex AG-50W. […] After allowing the samples to dry the L-citrulline is quantified by scintillation counting.
In a typical experiment basal activity is 300 dpm per 75 μl sample which is increased to 1900 dpm in the reagent controls. […] Compounds are tested at a range of concentrations and from the inhibitions is obtained IC50 values are calculated. […]

For the molecule `Cc1ccc(C#N)c(S[C@H](CN)c2ccccc2)n1` [Example 2, 2-[[(1S)-2-Amino-1-phenylethyl]thio]-6-methyl-3-pyridinecarbonitrile hydrochloride], the IC50 in data set [1] was below 100 µM.

In turn, `CC(=N)NCC(Oc1cc(Cl)c(F)cc1C#N)c1ccccc1.Cl` (stereo not drawn) [Example 5, N-[2-(5-Chloro-2-cyano-4-fluorophenoxy)-2-phenylethyl]-ethanimidamide hydrochloride] showed a melting point of 133 to 135 °C. For the same molecule, the IC50 in data set [1] was below 100 µM.

As to `CNC[C@@H](Sc1cc(Cl)ccc1C#N)c1ccccc1` [Example 9, 4-Chloro-2-[[(1S)-2-(methylamino)-1-phenylethyl]thio]benzonitrile hydrochloride], the IC50 in data set [1] was below 100 µM.

Take `N#Cc1ccc(Cl)cc1SC(CN)c1cccnc1` (stereo not drawn) [Example 11, 2-[[2-Amino-1-(3-pyridinyl)ethyl]thio]-4-chlorobenzonitrile]: the IC50 in data set [1] is below 100 µM.

As for `NCC(Sc1cc(Cl)ccc1Cl)c1ccccc1` (stereo not drawn) [Example 3, 2-[(2,5-Dichlorophenyl)thio]-2-phenylethylamine hydrochloride], the IC50 in data set [1] was below 100 µM.

As to `N#Cc1cc(F)c(Cl)cc1O[C@H](CN)c1ccon1` [Example 10, 2-[[(1R)-2-Amino-1-(3-isoxazolyl)ethyl]oxy]-4-chloro-5-fluorobenzonitrile ethanedioate], the IC50 in data set [1] was below 100 µM.

As for `COc1ccc(C#N)c(S[C@H](CN)c2ccccc2)c1` [Example 8, 2-[[(1S)-2-Amino-1-phenylethyl]thio]-4-methoxybenzonitrile hydrochloride], the IC50 in data set [1] was below 100 µM.

As for `N=C(N)NN` [ainlinoguanidine], at Nitric oxide synthase, the IC50 turned out to be 10 µM.

With `N#Cc1ccc(Cl)cc1S[C@H](CN)c1ccccc1` [Example 4, 2-[[(1S)-2-Amino-1-phenylethyl]thio]-4-chlorobenzonitrile hydrochloride], the IC50 in data set [1] was below 100 µM.

With `N#Cc1cc(F)c(Cl)cc1O[C@H](CN)c1ccccc1` [Example 1, 2-[[(1S)-2-Amino-1-phenylethyl]oxy]-4-chloro-5-fluorobenzonitrile (E)-butenedioate], the IC50 in data set [1] is below 100 µM.

Turning to `N#Cc1ccc(C(F)(F)F)nc1S[C@H](CN)c1ccccc1` [Example 7, 2-[[(1S)-2-Amino-1-phenylethyl]thio]-6-(trifluoromethyl)-3-piridinecarbonitrile], the IC50 in data set [1] was below 100 µM.

Source of the values: patent US7223794B2, “Arylheteroalkylamine derivatives and their use as inhibitors of nitric oxide synthase” (AstraZeneca AB, priority 2001, dated 2007).
